Results taken from patent US20190274334A1 (MARS, INCORPORATED, priority 2016, published 2019).
Read-outs that look alike come from different tables or passages of the source.

Molecular target: feline CaSR (f:CaSR) (Felis catus, UniProt A0ABI7YY68)
Test: cell-based
Type: cell-based
[1] = double-injection protocol, agonist mode and PAM mode
[2] = PAM mode, CaCl2 injected at EC20, read-out: EC50 (PAM)
[3] = agonist mode, read-out: EC50 (Agonist)

Sequence of feline CaSR (f:CaSR) (A0ABI7YY68 entry or part of it): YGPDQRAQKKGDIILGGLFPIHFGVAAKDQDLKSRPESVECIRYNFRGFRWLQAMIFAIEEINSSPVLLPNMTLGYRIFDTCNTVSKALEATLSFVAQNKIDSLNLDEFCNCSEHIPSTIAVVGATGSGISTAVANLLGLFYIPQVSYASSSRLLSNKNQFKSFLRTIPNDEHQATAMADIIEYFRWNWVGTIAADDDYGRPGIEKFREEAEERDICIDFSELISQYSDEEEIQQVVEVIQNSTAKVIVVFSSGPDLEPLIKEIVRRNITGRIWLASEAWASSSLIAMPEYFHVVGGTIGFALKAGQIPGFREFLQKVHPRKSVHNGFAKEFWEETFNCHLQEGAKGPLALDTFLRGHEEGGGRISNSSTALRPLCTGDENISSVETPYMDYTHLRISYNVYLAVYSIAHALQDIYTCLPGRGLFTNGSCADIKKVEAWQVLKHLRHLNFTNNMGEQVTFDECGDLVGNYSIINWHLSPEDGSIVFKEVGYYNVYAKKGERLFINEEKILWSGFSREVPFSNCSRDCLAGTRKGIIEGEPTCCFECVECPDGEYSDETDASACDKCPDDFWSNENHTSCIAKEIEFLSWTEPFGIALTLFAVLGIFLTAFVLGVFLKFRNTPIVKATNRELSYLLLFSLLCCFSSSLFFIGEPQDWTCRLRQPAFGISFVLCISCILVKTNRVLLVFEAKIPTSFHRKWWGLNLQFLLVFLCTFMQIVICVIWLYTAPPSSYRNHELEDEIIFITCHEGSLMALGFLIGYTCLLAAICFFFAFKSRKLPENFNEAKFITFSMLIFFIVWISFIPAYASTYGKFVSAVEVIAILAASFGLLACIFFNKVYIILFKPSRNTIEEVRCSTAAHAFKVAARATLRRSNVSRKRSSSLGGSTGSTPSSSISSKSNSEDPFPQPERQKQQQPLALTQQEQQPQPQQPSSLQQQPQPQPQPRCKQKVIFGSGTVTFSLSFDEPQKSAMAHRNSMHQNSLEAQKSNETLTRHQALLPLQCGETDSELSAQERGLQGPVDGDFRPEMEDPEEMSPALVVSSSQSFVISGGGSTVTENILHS

Row | Structure (SMILES) | Activity Type [1] | EC50 [2] [µM] | further results
1 | CC[C@H](NC(=O)CC[C@H](N)C(=O)O)C(=O)O | Agonist |  | 
2 | NC(CC(F)C(=O)O)C(=O)O (racemic) [4-Fluoro-DL-glutamic acid] | Agonist |  | 
3 | NC(CCCCC(=O)O)C(=O)O (racemic) [(±)-2-Aminopimelic acid] |  |  | Activity Type: Agonist
4 | COC(=O)C(N)CC(=O)O (racemic) [DL-Aspartic acid alpha-methyl ester] |  |  | Activity Type: Agonist
5 | NC(CC(C(=O)O)C(=O)O)C(=O)O (racemic) [γ-Carboxy-DL-glutamic acid] |  |  | Activity Type: Agonist
6 | N[C@@H](CP(=O)(O)O)C(=O)O (stereo in doubt) [2-Amino-3-phosphonopropionic acid] | Agonist |  | 
7 | N[C@@H](CCP(=O)(O)O)C(=O)O (stereo in doubt) [2-Amino-4-phosphonobutyric acid] | Agonist |  | 
8 | COc1cc(C(O)(c2nc3ccccc3s2)C(F)(F)F)c(OC)cc1N (centres unmarked) [1-(4-amino-2,5-dimethoxyphenyl)-1-(benzo[d]thiazol-2-yl)-2,2,2-trifluoroethanol] | PAM | 2.42 | 
9 | Cc1ccc(C2(CCNC(C)c3ccc(Cl)cc3)CCOC(C)(C)C2)cc1 (centres unmarked) [1-(4-chlorophenyl)-N-(2-(2,2-dimethyl-4-(p-tolyl)tetrahydro-2H-pyran-4-yl)ethyl)ethanamine] | PAM |  | 
10 | Cc1ccc(C(C)(O)c2nc3ccccc3s2)c(C)c1 (centres unmarked) [1-(benzo[d]thiazol-2-yl)-1-(2,4-dimethylphenyl)ethanol] | PAM | 0.0511 | 
11 | CC(NCC1CCCN(C)C1c1cccs1)c1cc(Cl)c(N)c(Cl)c1 (centres unmarked) [2,6-dichloro-4-(1-(((1-methyl-2-(thiophen-2-yl)piperidin-3-yl)methyl)amino)ethyl)aniline] | PAM | 8.68 | 
12 | CC(=O)N1C=Cc2ccccc2C1CC(=O)NC(C)c1cccc(Br)c1 (centres unmarked) [2-(2-acetyl-1,2-dihydroisoquinolin-1-yl)-N-(1-(3-bromophenyl)ethyl)acetamide] | PAM | 12.1 | 
13 | N[C@@H](C[C@H](O)C(=O)O)C(=O)O [2S,4S-γ-Hydroxy-L-glutamic acid] | Agonist |  | 
14 | CC(NCCC(c1ccccc1)C1CCOC(C)(C)C1)c1ccccc1 (centres unmarked) [3-(2,2-dimethyltetrahydro-2H-pyran-4-yl)-3-phenyl-N-(1-phenylethyl)propan-1-amine] | PAM | 0.988 | 
15 | OCC(CNC1CCCOc2cc(Cl)ccc21)Cc1ccccn1 (centres unmarked) [3-((8-chloro-2,3,4,5-tetrahydrobenzo[b]oxepin-5-yl)amino)-2-(pyridin-2-ylmethyl)propan-1-ol] | PAM |  | 
16 | CC(NCCC(c1ccccc1)c1ccco1)c1ccccc1 (centres unmarked) [3-(furan-2-yl)-3-phenyl-N-(1-phenylethyl)propan-1-amine] | PAM | 0.458 | 
17 | CC(NCCC(Cc1ccccc1)c1ccco1)c1ccccc1 (centres unmarked) [3-(furan-2-yl)-4-phenyl-N-(1-phenylethyl)butan-1-amine] | PAM | 0.673 | 
18 | Cc1ccc(C(CCNC(C)c2cccs2)c2ccco2)cc1 (centres unmarked) [3-(furan-2-yl)-N-(1-(thiophen-2-yl)ethyl)-3-(p-tolyl)propan-1-amine] | PAM | 2.25 | 
19 | Cc1ccc(C(CCNC(C)c2ccccc2)c2ccco2)cc1 (centres unmarked) [3-(furan-2-yl)-N-(1-phenylethyl)-3-(p-tolyl)propan-1-amine] | PAM | 0.752 | 
20 | N[C@@H](CCC(=O)N[C@@H](CSCc1c[nH]c2ccccc12)C(=O)NCC(=O)O)C(=O)O [3-Glutathionyl-S-methylindole] | Agonist |  | 
21 | c1ccc(C2CCN(C3CCCc4ccccc43)C2)cc1 (centres unmarked) [3-phenyl-1-(1,2,3,4-tetrahydronaphthalen-1-yl)pyrrolidine] | PAM |  | 

Row | Structure (SMILES) | Activity Type [1] | EC50 [2] [µM] | further results
22 | CC(NC1CCc2c(F)cc(Br)cc21)c1ccncc1 (centres unmarked) [6-bromo-4-fluoro-N-(1-(pyridin-4-yl)ethyl)-2,3-dihydro-1H-inden-1-amine] | PAM |  | 
23 | N[C@]1(C(=O)O)C[C@H](C(=O)O)C1 [(1s,3s)-1-aminocyclobutane-1,3-dicarboxylic acid] |  |  | Activity Type: Agonist
24 | [Ba] [Barium] | Agonist |  | EC50 [3]: 1170 µM
25 | C[C@@H](NCc1cc2ccccc2[nH]1)c1cccc2ccccc12 [Calindol, reference compound] | PAM |  | 
26 | C[C@@H](NCCCc1cccc(C(F)(F)F)c1)c1cccc2ccccc12 [Cinacalcet, reference compound] |  |  | Activity Type: PAM EC50 0.746 uM
27 | [Gd] [Gadolinium] | Agonist |  | EC50 [3]: 295 µM
28 | CNC(C)[C@@H]1CC[C@@H](N)[C@@H](O[C@H]2[C@H](O)[C@@H](O[C@H]3OC[C@](C)(O)[C@H](NC)[C@H]3O)[C@H](N)C[C@@H]2N)O1 (some centres unmarked) [Gentamicin, reference compound] | Agonist |  | EC50 [3]: 990 µM
29 | N[C@@H](CCC(=O)N[C@@H](CS)C(=O)NCC(=O)O)C(=O)O [Glutathione] |  |  | Activity Type: Agonist EC 50 6.39 mM
30 | C[C@H](NC(=O)C[C@H](N)C(=O)O)C(=O)O [H-Asp(Ala-OH)—OH] | Agonist |  | 
31 | N[C@@H](CC(=O)NCC(=O)O)C(=O)O [H-Asp(Gly-OH)—OH] | Agonist |  | 
32 | CC(C)C[C@H](NC(=O)C[C@H](N)C(=O)O)C(=O)O [H-Asp(Leu-OH)—OH] | Agonist |  | 
33 | N[C@@H](CC(=O)N[C@@H](Cc1ccccc1)C(=O)O)C(=O)O [H-Asp(Phe-OH)—OH] | Agonist |  | 
34 | N[C@@H](CCC(=O)N[C@@H](CS)C(=O)O)C(=O)O [H-Glu(Cys-OH)—OH] |  |  | Activity Type: Agonist
35 | NC(=O)CC[C@H](NC(=O)CC[C@H](N)C(=O)O)C(=O)O [H-Glu(Gln-OH)—OH] | Agonist |  | 
36 | NC(=O)CC[C@H](NC(=O)CC[C@H](NC(=O)CC[C@H](N)C(=O)O)C(=O)O)C(=O)O [H-Glu(Glu(Gln-OH)—OH)—OH] | Agonist |  | 
37 | N[C@@H](CCC(=O)N[C@@H](CCC(=O)N[C@@H](CCC(=O)O)C(=O)O)C(=O)O)C(=O)O [H-Glu(Glu(Glu-OH)—OH)—OH] |  |  | Activity Type: Agonist EC50 2.35 mM; EC50 [3]: 2350 µM
38 | N[C@@H](CCC(=O)N[C@@H](CCC(=O)O)C(=O)O)C(=O)O [H-Glu(Glu-OH)—OH] | Agonist |  | 
39 | N[C@@H](CCC(=O)NCC(=O)O)C(=O)O [H-Glu(Gly-OH)—OH] | Agonist |  | 
40 | CC(C)C[C@H](NC(=O)CC[C@H](N)C(=O)O)C(=O)O [H-Glu(Leu-OH)—OH] | Agonist |  | 
41 | CSCC[C@H](NC(=O)CC[C@H](N)C(=O)O)C(=O)O [H-Glu(Met-OH)—OH] | Agonist |  | 
42 | N[C@@H](CCC(=O)N[C@@H](Cc1c[nH]c2ccccc12)C(=O)O)C(=O)O [H-Glu(Trp-OH)—OH] | Agonist |  | 

Row | Structure (SMILES) | Activity Type [1] | EC50 [2] [µM] | further results
43 | N[C@@H](CCCC(=O)O)C(=O)O [L-2-Aminoadipic acid] | Agonist |  | 
44 | COC(=O)C[C@H](N)C(=O)O [L-Aspartic acid beta-methyl ester] | Agonist |  | 
45 | N[C@@H](CC(=O)O)C(=O)O [L-Aspartic acid] |  |  | Activity Type: Agonist EC50 4.11 mM
46 | N[C@@H](CS(=O)(=O)O)C(=O)O [L-Cysteic acid] | Agonist |  | 
47 | N[C@@H](CCC(=O)O)C(=O)O [L-Glutamic acid] |  |  | Activity Type: Agonist
48 | N[C@@H](CCS(=O)(=O)O)C(=O)O [L-Homocysteic acid] | Agonist |  | 
49 | NC(=O)[C@@H](N)CCC(=O)O [L-Isoglutamine] | Agonist |  | 
50 | [Mg] [Magnesium] | Agonist |  | 
51 | O=P(O)(O)CP(=O)(O)O [Methylenediphosphonic acid] | Agonist |  | EC50 [3]: 1290 µM
52 | Cc1ccc(C(C)NC(C)c2cc3ccccc3[nH]2)cc1C (centres unmarked) [N-(1-(1H-indol-2-yl)ethyl)-1-(3,4-dimethylphenyl)ethanamine] | PAM |  | 
53 | COc1ccccc1C(CCNC(C)c1ccc(Cl)cc1)c1ccc(OC(C)C)cc1 (centres unmarked) [N-(1-(4-chlorophenyl)ethyl)-3-(4-isopropoxyphenyl)-3-(2-methoxyphenyl)propan-1-amine] | PAM | 0.714 | 
54 | CC(C)Oc1ccc(C(CCNC(C)c2ccc(Cl)cc2)c2ccccc2)cc1 (centres unmarked) [N-(1-(4-chlorophenyl)ethyl)-3-(4-isopropoxyphenyl)-3-phenylpropan-1-amine] | PAM | 4.49 | 
55 | CC(C)Oc1ccc(C(CCNC(C)c2ccc(Cl)cc2)C(C)C)cc1 (centres unmarked) [N-(1-(4-chlorophenyl)ethyl)-3-(4-isopropoxyphenyl)-4-methylpentan-1-amine] | PAM | 135 | 
56 | CC(C)CCC(CCNC(C)c1ccc(Cl)cc1)c1ccc(OC(C)C)cc1 (centres unmarked) [N-(1-(4-chlorophenyl)ethyl)-3-(4-isopropoxyphenyl)-6-methylheptan-1-amine] | PAM | 172 | 
57 | COc1ccc(C(CCNC(C)c2ccc(Cl)cc2)C(C)C)cc1 (centres unmarked) [N-(1-(4-chlorophenyl)ethyl)-3-(4-methoxyphenyl)-4-methylpentan-1-amine] | PAM | 1.44 | 
58 | COc1ccc(C(CCNC(C)c2ccc(Cl)cc2)CCC(C)C)cc1 (centres unmarked) [N-(1-(4-chlorophenyl)ethyl)-3-(4-methoxyphenyl)-6-methylheptan-1-amine] | PAM | 115 | 
59 | COc1ccccc1C(CCNC(C)c1ccc(Cl)cc1)c1ccco1 (centres unmarked) [N-(1-(4-chlorophenyl)ethyl)-3-(furan-2-yl)-3-(2-methoxyphenyl)propan-1-amine] | PAM | 1.41 | 
60 | Cc1ccc(C(CCNC(C)c2ccc(Cl)cc2)c2ccco2)cc1 (centres unmarked) [N-(1-(4-chlorophenyl)ethyl)-3-(furan-2-yl)-3-(p-tolyl)propan-1-amine] | PAM | 3.68 | 
61 | CC(NCCC(Cc1ccccc1)c1ccco1)c1ccc(Cl)cc1 (centres unmarked) [N-(1-(4-chlorophenyl)ethyl)-3-(furan-2-yl)-4-phenylbutan-1-amine] | PAM | 4 | 
62 | CC(NCC1Cc2ccccc2O1)c1ccc2ccccc2n1 (centres unmarked) [N-((2,3-dihydrobenzofuran-2-yl)methyl)-1-(quinolin-2-yl)ethanamine] | PAM | 9.01 | 
